From patent publication US10870647B2, “Imidazopyridine derivative, method for preparing same, and pharmaceutical composition containing same as active ingredient for preventing or treating cancer” (DAEGU-GYEONGBUK MEDICAL INNOVATION FOUNDATION, priority 2016, dated 2020)

Tests used:
Format in all cases: cell-based
MDA-MB-231 = test: Real time cell proliferation, IncuCyte ZOOM, 72 hours; settings: Homo sapiens, MDA-MB-231, 72 h
Huh7 = test: Cancer cell proliferation inhibition, MTS assay, 72 hours; settings: Homo sapiens, Huh-7
Description: (§1) MTS assay was performed to evaluate the cancer cell proliferation inhibition (cancer cell apoptosis) effect of the compounds of examples of the present invention. Particularly, the assay was performed using the cancer cell lines GIST-T1, GIST-T1/816, GIST-430, GIST-430/654, GIST-R1, GIST-R3, M-NFS-60, RetParental (Ba/F3), Retwt (Ba/F3), RetV804M (Ba/F3), RET (LC2/ad-CDC6), FYN (MCP-1), FYN (FN), MDA-MB-231, Huh7, K562, T315I(Ba/F3), SK-MEL-28 and A375. Cell culture was performed using a medium suitable for each cell line.
(§2) Other cell lines were seeded in a 96-well plate containing the corresponding medium appropriate for each cell line at the density of 3,000 cells/well, followed by culture in a 5% CO2 and 37° C. incubator for 24 hours. The compounds of examples of the present invention were added to each well at the concentration of from the highest volume of 50 μM to every step of serial dilution. The solvent control, dimethylsulfoxide (DMSO), was treated at the same concentration of 0.05% (v/v) as the volume used for the treatment of the compounds above. Each cell line was cultured for 72 hours. To investigate the cell viability, the MTS and PMS (phenazine methosulfate) mixture provided in CellTiter 96® AQuous Non-Radioactive Cell Proliferation Assay Kit (Promega) was added to each cell culture medium, followed by additional culture at 37° C. for 2 hours. Then, OD450 was measured. Based on OD of the solvent control cells not treated with any compounds of the present invention, the cell proliferation inhibition rate was calculated according to the treatment concentration of each compound. At this time, the concentration of each compound that was able to inhibit cancer cell proliferation up to 50% was determined as IC50 (uM). IC50 of each compound was determined with three data sets and calculated by using Prism softwater (version 6.01, GraphPad).

M-NFS-60 = test: Cancer cell proliferation inhibition, CCK-8, 72 hours
Description: as §1
M-NFS-60 cell line was cultured in the complete growth medium prepared by adding 10% FBS, 0.05 mM 2-mercaptoethanol and 62 ng of human M-CSF to RPMI. When the confluence reached 80% in T-75 flask, the cells were collected in a 50 ml tube for seeding, followed by centrifugation at 800 rpm for 5 minutes. The cells were suspended in 10 mL of growth medium. The cell number was counted by using a hematocytometer to determine the necessary cell number and the medium volume for seeding. The cells were seeded in a 96-well plate at the density of 20000 cells/well (200 μL/well), followed by stabilization in a 37° C. CO2 incubator, while the compounds of the present invention were prepared. The compounds of the present invention were serially diluted with DMSO at the ratio of 1/3 with setting the maximum concentration at 1968 nM, which were loaded in a new V-bottom 96-well plate, resulting in the preparation of total 11 concentrations including the DMSO control. The cells that had been placed in the incubator were taken out, to which the compounds of the present invention were added (2 μl/well). The plate treated with the compounds was cultured in a 37° C. CO2 incubator for 72 hours. 72 hours later, the plate treated with the compounds was taken out, to which CCK-8 solution was treated (20 μl/well). After well mixing, the plate was further cultured in a 37° C. CO2 incubator for 2 hours. Then, OD450 was measured by using a microplate reader. To obtain accurate results, the wells displaying bubbles were eliminated from the measurement.

A375 = test: as above; settings: Homo sapiens, A-375, 72 h
Description: as §1
(§3) In the meantime, MDA-MB-231 and A375 cells were seeded in a 96well plate at the density of 2×10^3/100 μl/well, which stood for a day for attachment. The culture fluid was eliminated. After removing the culture medium, the medium was replaced with the culture medium containing the compounds of the present invention at 3-times serially diluted 9 concentrations (0.0015-10 μM) and the DMSO control, followed by incubation in a 37° C. CO2 incubator for 72 hours. On the other hand, K-562 and Ba/F3-T315I cells were seeded in a 96-well plate at the density of 1×10^4/90 μl/well. The plate containing K-562 cells was added with the culture medium containing the compounds of the present invention at 3-times serially diluted 9 concentrations (0.015-100 μM) and the DMSO control (10 μl/well). The plate containing Ba/F3-T315I cells was added with the culture medium containing the compounds of the present invention at 5-times serially diluted 9 concentrations (0.000256-100 μM) and the DMSO control (10 μl/well). The final concentration was made 0-10 μM and then the cells were cultured in a 37° C. CO2 incubator for 72 hours.
(§4) A375, K-562 and Ba/F3-T315I cells were added with CCK-8 solution at the concentration of 10 μl/well, followed by orbital shaking for 30 seconds. Then, the cells were cultured in a 37° C. CO2 incubator for 2 hours. OD450 was measured by using a microplate reader. The OD value of the well treated with the culture medium and CCK-8 solution alone was subtracted from the OD value measured above, followed by calculation of IC50 using GraphPad Prism 6 software.

K562 = test: as above; settings: Homo sapiens, K562, 72 h
Description: as §1, §3, §4

T315I (Ba/F3) = biological target: T1, T315I (Ba/F3) (Homo sapiens, UniProt P00519, T315I, cells depend on it); test: as above; settings: read-out: T315I (Ba/F3) IC50
T1 construct: fused on or other part: P11274 (Breakpoint cluster region protein)
Description: as §1, §3, §4

RET (LC2/ad-CDC6) = test: Cancer cell proliferation inhibition, MTS assay, 72 hours; settings: 72 h
Description: as §1, §2

Row | Structure (SMILES) | IC50 (MDA-MB-231) [nM] | IC50 (Huh7) [nM] | IC50 (M-NFS-60) [nM] | IC50 (A375) [nM] | IC50 (K562) [nM] | GI50 (T315I (Ba/F3)) [nM] | IC50 (RET (LC2/ad-CDC6)) [nM]
1 | Cc1ccc(C(=O)Nc2ccc3cccnc3c2)cc1C#Cc1cnc2c(Nc3cnn(C)c3)cccn12 [Example 36, 4-methyl-3-((8-((1-methyl-1H-pyrazol-4-yl)amino)imidazo[1,2-a]pyridin-3-yl)ethynyl)-N-(quinolin-7-yl)benzamide] | > 10000 | 145 | 7.76 | > 10000 | 6 | > 10000 | –
2 | COCCn1cc(Nc2cccn3c(C#Cc4cc(C(=O)Nc5ccc(CN6CCN(C)[C@H](C)C6)c(C(F)(F)F)c5)ccc4C)cnc23)cn1 [Example 40, (R)—N-(4-((3,4-dimethylpiperazin-1-yl)methyl)-3-(trifluoromethyl)phenyl)-3-((8-((1-(2-methoxyethyl)-1H-pyrazol-4-yl)amino)imidazo[1,2-a]pyridin-3-yl)ethynyl)-4-methylbenzamide] | 230 | 101 | – | 97 | 8 | 33.5 | 10
3 | COCCCn1cc(Nc2cccn3c(C#Cc4cc(C(=O)Nc5ccc(CN6CCN(C)[C@H](C)C6)c(C(F)(F)F)c5)ccc4C)cnc23)cn1 [Example 42, (R)—N-(4-((3,4-dimethylpiperazin-1-yl)methyl)-3-(trifluoromethyl)phenyl)-3-((8-((1-(3-methoxypropyl)-1H-pyrazol-4-yl)amino)imidazo[1,2-a]pyridin-3-yl)ethynyl)-4-methylbenzamide] | 320 | 100 | – | 163 | 8 | 122 | > 10
4 | COCCCn1cc(Nc2cccn3c(C#Cc4cc(C(=O)Nc5ccc(CN6CCC(N(C)C)C6)c(C(F)(F)F)c5)ccc4C)cnc23)cn1 (centres unmarked) [Example 43, N-(4-((3-(dimethylamino)pyrrolidin-1-yl)methyl)-3-(trifluoromethyl)phenyl)-3-((8-((1-(3-methoxypropyl)-1H-pyrazol-4-yl)amino)imidazo[1,2-a]pyridin-3-yl)ethynyl)-4-methylbenzamide] | 190 | 98 | – | 341 | 16 | 59.7 | > 10
5 | COCCn1cc(Nc2cccn3c(C#Cc4cc(C(=O)Nc5ccc(CN6CCN(C)[C@@H](C)C6)c(C(F)(F)F)c5)ccc4C)cnc23)cn1 [Example 44, (S)—N-(4-((3,4-dimethylpiperazin-1-yl)methyl)-3-(trifluoromethyl)phenyl)-3-((8-((1-(2-methoxyethyl)-1H-pyrazol-4-yl)amino)imidazo[1,2-a]pyridin-3-yl)ethynyl)-4-methylbenzamide] | 240 | 165 | 38.8 | 183 | 12 | 42.2 | 10
6 | Cc1ccc(C(=O)Nc2ccc(CN3CCN(C)[C@@H](C)C3)c(C(F)(F)F)c2)cc1C#Cc1cnc2c(Nc3cnn(C)c3)cccn12 [Example 47, (S)—N-(4-((3,4-dimethylpiperazin-1-yl)methyl)-3-(trifluoromethyl)phenyl)-4-methyl-3-((8-((1-methyl-1H-pyrazol-4-yl)amino)imidazo[1,2-a]pyridin-3-yl)ethynyl)benzamide] | 168 | – | 43.8 | 152 | < 1 | 25 | > 10
7 | Cc1ccc(C(=O)Nc2ccc(CN3CC[C@@H](N(C)C)C3)c(C(F)(F)F)c2)cc1C#Cc1cnc2c(Nc3cnn(C)c3)cccn12 [Example 50, (R)—N-(4-((3-(dimethylamino)pyrrolidin-1-yl)methyl)-3-(trifluoromethyl)phenyl)-4-methyl-3-((8-((1-methyl-1H-pyrazol-4-yl)amino)imidazo[1,2-a]pyridin-3-yl)ethynyl)benzamide] | 325 | 57 | 40.3 | 224 | < 1 | 28.2 | > 10
8 | Cc1ccc(C(=O)Nc2ccc(Cl)c(C(F)(F)F)c2)cc1C#Cc1cnc2c(Nc3cnn(C4CCNCC4)c3)cccn12 [Example 63, N-(4-chloro-3-(trifluoromethyl)phenyl)-4-methyl-3-((8-((1-(piperidin-4-yl)-1H-pyrazol-4-yl)amino)imidazo[1,2-a]pyridin-3-yl)ethynyl)benzamide] | 1410 | – | 71 | 1330 | < 1 | 374 | > 10
9 | Cc1ccc(C(=O)Nc2ccc(CN3CCN(C)CC3)c(C(F)(F)F)c2)cc1C#Cc1cnc2c(Nc3cccc(C(C)(C)O)n3)cccn12 [Example 64, 3-((8-(6-(2-hydroxypropan-2-yl)pyridin-2-yl)aminoimidazo[1,2-a]pyridin-3-yl)ethynyl)-4-methyl-N-(4-((4-methylpiperazin-1-yl)methyl)-3-(trifluoromethyl)phenyl)benzamide] | 987 | – | 127 | 741 | 3 | 75 | > 10
10 | Cc1ccc(C(=O)Nc2ccc(CN3CCN(C)CC3)c(C(F)(F)F)c2)cc1C#Cc1cnc2c(Nc3cc4n(n3)CCNC4)cccn12 [Example 66, 4-methyl-N-(4-((4-methylpiperazin-1-yl)methyl)-3-(trifluoromethyl)phenyl)-3-((8-((4,5,6,7-tetrahydropyrazolo[1,5-a]pyrazin-2-yl)amino)imidazo[1,2-a]pyridin-3-yl)ethynyl)benzamide] | 386 | – | 62.7 | – | < 1.5 | 170 | –
11 | Cc1ccc(C(=O)Nc2cccc(C(F)(F)F)c2)cc1C#Cc1cnc2c(Nc3cc4n(n3)CCNC4)cccn12 [Example 67, 4-methyl-3-((8-((4,5,6,7-tetrahydropyrazolo[1,5-a]pyrazin-2-yl)amino)imidazo[1,2-a]pyridin-3-yl)ethynyl)-N-(3-(trifluoromethyl)phenyl)benzamide] | 429 | 919 | 19.4 | – | < 1.5 | 40.1 | –
12 | COCCn1cc(Nc2cccn3c(C#Cc4cc(C(=O)Nc5cccc(C(F)(F)F)c5)ccc4C)cnc23)cn1 [Example 70] | 1160 | 848 | 12.3 | – | < 1.5 | 26.1 | –
13 | Cc1ccc(C(=O)Nc2cccc(C(F)(F)F)c2)cc1C#Cc1cnc2c(Nc3cnn(CCN(C)C)c3)cccn12 [Example 74] | 1120 | – | 21.4 | – | < 1.5 | 93.1 | –
